Measured values as given in patent US10285961B2, “Organic acids as agents to dissolve calcium minerals in pathological calcification and uses thereof” (University of Houston System, priority 2014, dated 2019).
“Also recorded” adds a separate entry of the source.

What was measured:
[1] = Calcium ion selective electrode (ISE) measurement of COM crystallization kinetics; details: synthetic versus extracted hydroxycitrate, slope of free calcium ion depletion relative to control
Experimental: A calcium ion selective electrode (ISE, ThermoScientific with Orion 9720BNWP Ionplus® electrode) was used to measure the effect of organic growth modifiers (OGMs) on the kinetics of COM crystallization which measures the concentration of free calcium ions in solution. Samples were prepared in the similar manner as COM bulk crystallization. Final solution composition was set to be 0.5 mM CaCl2: 0.5 mM Na2C2O4: 150 mM NaCl and the measurements were performed at room temperature. During ISE measurements, the stir rate was adjusted to 1200 rpm to minimize the induction time for nucleation. OGM efficacy was measured by calculating the temporal depletion of calcium ion concentration (ppm range). The data was normalized by subtracting the concentration of the initial time point from each time point. The rate of depletion was calculated by measuring the initial slope of the crystal growth curve. The efficacy of synthetic and extracted hydroxycitrate was assessed using the percent inhibition, which was calculated by comparing the reduced slopes for each OGM relative to that of the control (i.e., absence of OGM). Prior to ISE measurements, the electrode was calibrated using a standard calcium solution (0.1 M, Orion Ion Plus), which was diluted with deionized water to three concentrations: 10^−4, 10^−3 and 10^−2 M. The ionic strength of each solution was adjusted using a standard solution (ISA, Thermo Scientific), which was added in a 1:50 volume ratio of ISA-to-standard.
Additionally, the inhibitory efficacy of synthetic and extracted HCA was observed. An ion selective electrode measures the free calcium ion in the solution in the course of experiments. The efficacy of both HCA molecules was measured by calculating the temporal depletion of free calcium ion concentration in COM growth solutions. The data was normalized by subtracting the concentration of the initial time point from all time points. The rate of depletion was calculated by measuring the initial slope of the crystal growth curve. The efficacy of the synthetic and extracted HCA was assessed using the percent inhibition, which was calculated by comparing the slopes for each molecule relative to that of the control (i.e., in the absence of HCA).

[2] = Exposure of fully grown COM crystals to HCA: optical microscopy and AFM surface roughness; details: HCA (100 μg/mL) introduced at the end of crystallization period (3 days); optical micrographs
Experimental: Crystallization was carried out in a 20-mL glass vial by dissolving NaCl in deionized water then adding 0.7 mL of 10 mM CaCl2 stock solution which was prepared in advance. The sample vial was place in an oven set to 60° C. for one hour to ensure the crystallization was performed at 60° C. Subsequently 0.7 mL of […] Na2C2O4 stock solution was added to the solution dropwise while the solution was stirred at 400 rpm. To investigate the effect of hydroxycitrate […] COM crystallization, prepared hydroxycitrate stock solution was added to the solution dropwise at the end of three day crystallization period. A clean glass slide (ca. 1.3×1.3 cm^2) was placed at the bottom of the glass vial to readily collect the crystals prior to placing the vial in the oven. Final solution composition was set to be 0.7 mM CaCl2: 0.7 mM Na2C2O4: 150 mM NaCl and the amount of deionized water was adjusted to set the final volume to 10 mL. Crystallization was performed at 60° C. for three days without agitation. The glass slide was removed from the solution and dried at room temperature prior to analysis.
Morphology of COM crystals prepared in the absence and in the presence of OGMs were assessed and compared under optical microscope (Leica DM2500-M). Images were obtained in brightfield using reflectance. […]

[3] = Upper limit of metastability of urine from patients with kidney stones; set-up: species or system human; details: for inhibition: calcium oxalate molar product at the point of crystallization: 8 urine samples, 37° C. for 4 hours
Experimental: The crystal inhibition activity of hydroxycitrate in human urine was determined using measurement of upper limit of metastability. For this experiment, 8 urine samples from patients with kidney stones were used. The urine was either spiked with a known amount of an inhibitor or spiked with saline as control. Ten aliquots of each urine sample were added to the wells of a microtiter plate and increasing amounts of oxalate was added. The plates were incubated at 37° C. for 4 hours and then turbidity was measured using an enzyme-linked immunosorbent assay (ELISA) plate reader. The well with the lowest amount of oxalate in which increased turbidity is noted is considered the crystallization point. Multiplying the calcium concentration of the urine and the oxalate concentration (original oxalate plus the amount of oxalate added) at the point of crystallization provides a rough measure of saturation at the point of crystallization.
The upper limit of metastability assay was also used to compare the inhibitory activity of hydroxycitrate to that of other tricarboxyllic acids: citrate, isocitrate, and tricarballylate. […] Each of tricarboxyllic acids was added to urine samples from stone forming patients to provide a final concentration of 2 mM. The data are expressed as the increase of the calcium oxalate molar product at crystallization compared to the control urine sample without any inhibitor added.

[4] = In situ AFM of growth hillocks on the (100) surface of COM crystals
Experimental: Atomic force microscopy (AFM, Bruker Multimode 4) was used to study the COM crystal surface topography at a nanometer length scale. Samples were mounted on a disk covered with a thin layer of thermally curable epoxy (MasterBond EP21AOLV). The epoxy was partially cured in an oven for ca. 20 min at 60° C. prior to transferring the crystals obtained from bulk crystallization. The crystals were immobilized on the epoxy with the or [010] direction oriented normal to the specimen surface by placing the sample in an oven at 60° C. for two to three hours to completely cure the epoxy. The cantilevers used in this study were silicon nitride probes with gold reflex coating and a spring constant of 0.15 N/m (Olympus, TR800PSA). AFM was also employed to observe the kinetics of crystal growth in supersaturated calcium oxalate solutions by monitoring the velocity of step advancement on the (010) surface and (100) surface of COM crystals in real time. […]
The interaction between hydroxycitrate and the (100) surface of COM crystals was also observed using atomic force microscopy. The growth of hillocks by screw dislocation on the (100) surface of COM crystals were measured in real time in the absence and in the presence of 0.25 μg/mL HCA (FIGS. 4A-4F). […]

[5] = set-up: species or system human; details: in vivo
Experimental: In order for hydroxycitrate to have a direct effect on calcium oxalate stone formation, it must be excreted in the urine. As preliminary evidence of renal excretion in humans, over the counter hydroxycitrate supplements (trade name Super CitraMax) was administered to a normal healthy subject at a dose of 4.3 mmoles of hydroxycitrate two times a day (total daily dose of 8.6 mmoles) for three days. The standard dose recommended by the manufacturer is 12.9 mmoles per day. On the third day a 24 hour urine collection was performed. Hydroxycitrate excretion was measured using ion chromatography. […] Peak 1 is urine citrate, peak 2 is hydroxycitrate. Using a standard curve created using a high purity hydroxycitrate standard, hydroxycitrate excretion was calculated to be 1.28 mmoles per day. Thus, approximately 15% of the oral hydroxycitrate dose was excreted in the urine.

[6] = In situ AFM of growth hillocks on the (010) face of COM crystals (step velocity)
Experimental: Atomic force microscopy (AFM, Bruker Multimode 4) was used to study the COM crystal surface topography at a nanometer length scale. Samples were mounted on a disk covered with a thin layer of thermally curable epoxy (MasterBond EP21AOLV). The epoxy was partially cured in an oven for ca. 20 min at 60° C. prior to transferring the crystals obtained from bulk crystallization. The crystals were immobilized on the epoxy with the or [010] direction oriented normal to the specimen surface by placing the sample in an oven at 60° C. for two to three hours to completely cure the epoxy. The cantilevers used in this study were silicon nitride probes with gold reflex coating and a spring constant of 0.15 N/m (Olympus, TR800PSA). AFM was also employed to observe the kinetics of crystal growth in supersaturated calcium oxalate solutions by monitoring the velocity of step advancement on the (010) surface and (100) surface of COM crystals in real time. The experiment was designed to assess the effects of a range of concentration of hydroxycitrate on step growth using a fluid cell (Bruker, MTFML) to produce an environment that mimics in situ crystallization. The fluid cell had two ports for inlet and outlet flow to maintain constant supersaturation during AFM measurements. A silicon O-ring was used to ensure no liquid leakage would occur while solutions were being continuously replenished. A dual syringe pump (CHEMYX, Fusion 200) was used to flow the solutions into the fluid cell.
Hydroxycitrate has four stereoisomers, […], (2S,3R), (2S,3S), and (2R,3R) (FIG. 1). In order to investigate the interaction between hydroxycitrate and COM crystal surface at a molecular level, atomic force microscopy was utilized. The growth of hillocks by screw dislocation on the (010) face of COM crystals were measured in real time in the absence and in the presence of 0.1 μg/mL HCA (FIGS. 2A-2F). Growth hillocks on (010) face are bounded by {021} and {12-1} faces. […] The temporal advancement of steps (i.e., step velocity) of the growth hillock in the absence and in the presence of a wide range of concentration of HCA was measured (FIGS. 3A-3B). […] These phenomena are conventional modes of crystal growth inhibition. […] This phenomenon confirms the role of HCA as a dissolving agent.

[7] = 2 mM final concentration, comparison of tricarboxylic acids

Compound: (−)-Hydroxycitric acid calcium salt [extracted HCA]
- efficacy (percent inhibition) on COM crystallization ([1]; calcium salt): comparable
- efficacy (percent inhibition) on COM crystallization ([1]; listed as cHCA, calcium salt): comparable effect

Compound: O.O=C([O-])CC(O)(C(=O)[O-])C(O)C(=O)[O-].[K+].[K+].[K+] (stereo not shown) [synthetic HCA, potassium hydroxycitrate tribasic monohydrate]
- efficacy (percent inhibition) on COM crystallization ([1]; listed as sHCA, monohydrate): comparable effect
- efficacy (percent inhibition) on COM crystallization ([1]; monohydrate): comparable

Compound: O=C(O)CC(O)(C(=O)O)C(O)C(=O)O (stereo not shown) [HCA, hydroxycitrate]
- overall crystal morphology [2]: remained the same as that of the control; also recorded: maintained the same overall morphology
- inhibition: calcium oxalate molar product at the point of crystallization ([3]; 1 mM final concentration): greater inhibition than the control urine
- inhibition: calcium oxalate molar product at the point of crystallization ([3]; 2 mM final concentration): greater inhibition than the 1 mM hydroxycitrate
- increase of the calcium oxalate molar product at crystallization compared to the control urine [3, 7]: higher levels of inhibition compared to the other inhibitors
- surface features of COM crystal ([4]; 0.1 μg/mL HCA as printed): dissolves the COM crystal surface
- surface features of COM crystal ([4]; 0.25 μg/mL HCA): etch pits start to form at step edges; also recorded: rapid formation of etch pits at the edge of steps
- fraction of the oral hydroxycitrate dose excreted in the urine [5]: approximately 15%
- surface features of COM crystal ([6]; 0.1 μg/mL HCA): signs of dissolution; also recorded: dissolves the COM crystal surface
- step velocity of growth hillocks ([6]; <021> and <12-1> directions, low concentration of HCA (<0.06 μg/mL)): decrease; also recorded: slightly decreases
- step velocity of growth hillocks ([6]; high concentration of HCA (>0.15 μg/mL)): nearly zero; also recorded: ceases to zero
- step velocity of growth hillocks ([6]; intermediate concentration (0.06 μg/mL<CHCA<0.15 μg/mL)): negative velocity; also recorded: negative values

Compound: O=C(O)CC(CC(=O)O)C(=O)O [tricarballylate, reference compound]
- difference of inhibition versus hydroxycitrate [3, 7]: reached statistical significance
